Test results reported in ChEMBL document CHEMBL1150219, “New co-metabolites of the streptazolin pathway” (2001).
Activity calls are given as the source filed them. The rule behind the calls is not given here.

What was measured:
[1] = system: HMO2; test: Cytotoxicity against human HMO2 cells at 50 umol/L; format: functional, cell-based
[2] = system: HepG2; test: Cytotoxicity against human HepG2 cells at 50 umol/L; format: functional, cell-based
[3] = system: MCF7; test: Cytotoxicity against human MCF7 cells at 50 umol/L; format: functional, cell-based
[4] = Cytotoxicity against human KATO III cells; format: functional, KATO III cell
[5] = system: MCF7; test: Cytotoxicity against human MCF7 cells; format: functional
[6] = Cytotoxicity against human HMO2 cells; format: functional
[7] = system: HepG2; test: Cytotoxicity against human HepG2 cells; format: functional

Row | SMILES | Activity [1] | Activity [2] | Activity [3] | GI50 [4] [nM] | TGI [4] [nM] | GI50 [5] [nM] | TGI [5] [nM] | GI50 [6] [nM] | TGI [6] [nM] | GI50 [7] [nM] | TGI [7] [nM]
1 | C/C=C1/C2=CCCN3C(=O)O[C@H]([C@H]1O)[C@H]23 | inactive | inactive | inactive |  |  |  |  |  |  |  | 
2 | C/C=C1/C2=CCCN3C(=O)O[C@H]([C@H]1O[C@@H]1OC[C@@H](O)[C@H](O)[C@H]1O)[C@H]23 |  |  |  | 700 | 1000 | 10000 | 30000 | 150 | > 50000 | 300 | 5000
